Source: patent US9139616B2, “Isolation, identification, and uses of antifungal compounds” (priority 2010, dated 2015)
In brackets after ≈: the same amount, converted by molar mass. Numbered stars: 1 amine (or outer) side, 2 acyl side, 3 side chain; on linkers, the order of the positions; unused ones are H or OH. Bridge positions count the residues as written; N and C are the ends. Square brackets hold non-standard residues; d marks the D form. Peptide text beside a SMILES is read from it. ξ: configuration not given here. X1 = CCCCCCCCCCCC(O[C@H]1OC[C@H](O)[C@@H](O)[C@@H]1O)C(O)C(O)CC(CC(=O)[*:1])N[*:2]; X2 = CCCCCCCCCCCC(O)C(O)C(O)CC(CC(=O)[*:2])N[*:1]; Asn(3S-OH) = NC(=O)[C@@H](O)[C@H](N)C(=O)O; ξTyr(βOH) = NC(C(=O)O)C(O)c1ccc(O)cc1

Assays:
Experiment in all cases: Microtitre 2-fold serial dilution MIC assay
Format in all cases: cell-based
Aspergillus niger = conditions: A. niger; 30° C., 4 days, turbidity
Saccharomyces cerevisiae = conditions: S. cerevisiae; 30° C., 4 days, turbidity
Method: Anti-fungal activity for the present compounds was determined using microtitre format. Microtitre plates (96 wells: rows A-H, columns 1-12) were filled by the following protocol to give 2-fold serial dilutions of each of Bk-1229 and Bk-1097. Samples of Bk-1229 and Bk-1097 were dissolved in 1/10-strength BHIB containing 0.1% (w/v) dimethylsulfoxide (DMSO). Aliquots (50 μL) of 1/10-strength BHIB containing 0.1 (w/v) % DMSO (pH 7.4) were added to all wells except those in column 1. The wells in column 1 received 100 μL of the solutions of Bk-1229 or Bk-1097 and 50 μL was removed and mixed with the medium in the second well. This process was repeated through well 11, at which point an aliquot (50 μL) was removed and discarded. Well 12 was the blank (positive growth) control, BHIB+DMSO only. The test microorganisms employed in this example were Saccharomyces cerevisiae, Candida albicans, and Aspergillus niger, which were obtained from the Virginia Tech Microbiology Culture Collection. Cells of S. cerevisiae and C. albicans were grown in sterile 1/10-strength Brain Heart Infusion Broth (BHIB) and incubated at 30° C. for 18 h. Cells were counted as colony forming units on 1/10-strength BHIB agar. Spore suspensions of A. niger were prepared from lawns of sporulating colonies on 1/10-strength BHIB agar. The number of spores was determined by counting spores microscopically in a Petroff-Hauser counting chamber. The resulting culture or spore suspensions were diluted to 10^5 cells or spores/mL. Following the preparation of the dilution series, 50 μL of microbial inocula (10^5/mL) were added to each well in a row. The concentration of Bk-1229 and Bk-1097 ranged from 50 to 0.05 μg/mL. After the plates were incubated at 30° C. for 4 days, measurement of minimal inhibitory concentration (MIC) results were read by comparing the turbidity (due to microbial growth) of each test well to the positive control wells. The measured MICs for each of burkholdines are summarized as follow: […]

Candida albicans = conditions: C. albicans; 30° C., 4 days, turbidity

Row | Compound | MIC (Aspergillus niger) | MIC (Saccharomyces cerevisiae) | MIC (Candida albicans)
1 | C[C@@H]1[C@H](O)[C@@H](C)/C=C/C=C/C=C/C=C/C=C/C=C/C=C/[C@H](O[C@@H]2O[C@H](C)[C@@H](O)[C@H](N)[C@@H]2O)C[C@@H]2O[C@](O)(C[C@@H](O)C[C@@H](O)[C@H](O)CC[C@@H](O)C[C@@H](O)CC(=O)O[C@H]1C)C[C@H](O)[C@H]2C(=O)O [Amphetericin B, reference compound] | 25 µg/mL (≈ 27.1 µM) | 25 µg/mL (≈ 27.1 µM) | 25 µg/mL (≈ 27.1 µM)
2 | CCCCCCCCCCCC(O)C(O)C(O)CC1CC(=O)N[C@H](CO)C(=O)NC(C(O)c2ccc(O)cc2)C(=O)N[C@H](CC(N)=O)C(=O)NCC(=O)N[C@@H](CC(N)=O)C(=O)N[C@@H](CO)C(=O)N[C@@H]([C@H](O)C(N)=O)C(=O)N1 (stereo partly drawn) [Bk-1097 (2), burkholdine 1097] (cyclo(GNS[Asn(3S-OH)][X2][dS][ξTyr(βOH)][dN])) | 1.6 µg/mL (≈ 1.46 µM) | 1.6 µg/mL (≈ 1.46 µM) | 12.5 µg/mL (≈ 11.4 µM)
3 | CCCCCCCCCCCC(O[C@H]1OC[C@H](O)[C@@H](O)[C@@H]1O)C(O)C(O)CC1CC(=O)N[C@H](CO)C(=O)NC(C(O)c2ccc(O)cc2)C(=O)N[C@H](CC(N)=O)C(=O)NCC(=O)N[C@@H](CC(N)=O)C(=O)N[C@@H](CO)C(=O)N[C@@H]([C@H](O)C(N)=O)C(=O)N1 (stereo partly drawn) [Bk-1229 (1), burkholdine 1229] ([dS][ξTyr(βOH)][dN]GNS[Asn(3S-OH)]; linker N-C via X1) | 12.5 µg/mL (≈ 10.2 µM) | 0.4 µg/mL (≈ 0.325 µM) | 12.5 µg/mL (≈ 10.2 µM)
